Key:
[1] = molecular target: T1, PI3Kγ (p101/p110γ protein) (Homo sapiens, UniProt P48736); assay: PI3Kγ In Vitro Kinase Assay; assay type: biochemical; conditions: purified recombinant p101/p110γ with G protein β1/γ2 subunits; 20 μM ATP, 25 μM PIP2; 20 minutes at room temperature
T1 construct: HA; made in house; host or cells: Spodoptera frugiperda (Sf9) cells, baculovirus co-infection
How it was run: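 Sf9-expressed, purified human p101/p110γ (2.7 nM) was activated by Gβ1/γ2 (57.7 nM) and reacted with 20 μM ATP plus [γ-32P]ATP on PIP2 (25 μM)/PE (300 μM) micelles with 10 mM MgCl2 in HEPES buffer. Reactions ran 20 min at room temperature. Filter-captured radiolabeled PIP3 was counted by scintillation.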

T1 sequence (P48736 whole entry, species assumed): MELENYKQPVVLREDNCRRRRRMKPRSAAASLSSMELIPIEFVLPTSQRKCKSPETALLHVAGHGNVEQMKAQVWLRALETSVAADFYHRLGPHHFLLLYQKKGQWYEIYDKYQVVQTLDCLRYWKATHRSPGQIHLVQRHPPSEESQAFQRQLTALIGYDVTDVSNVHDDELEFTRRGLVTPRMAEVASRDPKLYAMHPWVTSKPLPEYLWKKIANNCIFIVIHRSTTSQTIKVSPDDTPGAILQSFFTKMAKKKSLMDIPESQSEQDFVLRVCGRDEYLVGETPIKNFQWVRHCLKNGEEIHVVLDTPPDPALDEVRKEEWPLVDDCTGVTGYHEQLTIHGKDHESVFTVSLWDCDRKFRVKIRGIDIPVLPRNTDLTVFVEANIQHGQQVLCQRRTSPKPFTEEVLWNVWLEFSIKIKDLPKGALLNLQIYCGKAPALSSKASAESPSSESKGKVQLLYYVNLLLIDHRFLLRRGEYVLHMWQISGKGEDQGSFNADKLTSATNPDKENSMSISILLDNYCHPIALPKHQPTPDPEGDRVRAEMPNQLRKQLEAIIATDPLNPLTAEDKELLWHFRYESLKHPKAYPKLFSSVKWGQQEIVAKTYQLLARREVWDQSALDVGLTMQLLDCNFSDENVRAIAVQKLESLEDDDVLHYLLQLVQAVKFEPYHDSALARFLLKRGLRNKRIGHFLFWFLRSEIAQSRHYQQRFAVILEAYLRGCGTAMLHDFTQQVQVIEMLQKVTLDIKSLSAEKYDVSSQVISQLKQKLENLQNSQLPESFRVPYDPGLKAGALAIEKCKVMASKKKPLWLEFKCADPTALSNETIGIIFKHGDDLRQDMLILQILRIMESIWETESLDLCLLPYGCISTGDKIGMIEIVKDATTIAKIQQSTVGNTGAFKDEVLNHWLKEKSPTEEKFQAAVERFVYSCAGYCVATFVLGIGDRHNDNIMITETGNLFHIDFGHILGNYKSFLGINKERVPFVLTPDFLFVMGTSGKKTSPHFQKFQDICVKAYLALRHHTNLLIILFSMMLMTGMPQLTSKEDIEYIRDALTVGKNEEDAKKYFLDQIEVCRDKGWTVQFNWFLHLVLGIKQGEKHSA
T1 sequence (Q8WYR1 whole entry partner, species assumed): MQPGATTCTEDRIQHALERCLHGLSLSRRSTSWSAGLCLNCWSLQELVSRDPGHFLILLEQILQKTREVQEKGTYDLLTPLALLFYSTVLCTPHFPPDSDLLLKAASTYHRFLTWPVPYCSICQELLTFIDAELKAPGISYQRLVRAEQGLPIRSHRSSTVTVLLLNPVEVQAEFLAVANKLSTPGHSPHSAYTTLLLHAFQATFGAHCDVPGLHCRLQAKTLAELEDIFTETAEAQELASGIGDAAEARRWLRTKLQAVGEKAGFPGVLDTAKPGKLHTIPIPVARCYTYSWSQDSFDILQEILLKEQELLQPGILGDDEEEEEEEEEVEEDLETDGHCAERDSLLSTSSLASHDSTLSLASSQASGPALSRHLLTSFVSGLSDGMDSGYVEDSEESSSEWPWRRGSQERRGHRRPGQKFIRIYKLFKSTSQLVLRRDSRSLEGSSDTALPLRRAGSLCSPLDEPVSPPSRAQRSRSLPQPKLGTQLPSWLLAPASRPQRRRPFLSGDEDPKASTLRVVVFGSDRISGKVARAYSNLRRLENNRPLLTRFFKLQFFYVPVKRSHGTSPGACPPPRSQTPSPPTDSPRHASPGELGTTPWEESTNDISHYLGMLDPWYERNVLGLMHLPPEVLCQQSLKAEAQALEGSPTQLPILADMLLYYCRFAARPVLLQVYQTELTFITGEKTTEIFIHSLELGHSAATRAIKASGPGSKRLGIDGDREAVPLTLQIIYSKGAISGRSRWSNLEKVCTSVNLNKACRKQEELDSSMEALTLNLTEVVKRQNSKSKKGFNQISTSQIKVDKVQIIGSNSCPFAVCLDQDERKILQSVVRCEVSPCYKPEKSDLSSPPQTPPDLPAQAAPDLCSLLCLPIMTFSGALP

| IC50 [1] [nM] | melting point [°C] | SMILES |
| --- | --- | --- |
| 3 | > 300 | O=C1NC(=S)SC1=Cc1ccc2c(c1)N(OCc1ccc(Cl)c(Cl)c1)C(=O)CO2 [Example 88, 4-(3,4-Dichloro-benzyloxy)-6-(4-oxo-2-thioxo-thiazolidin-5-ylidenemethyl)-4H-benzo[1,4]oxazin-3-one] |
| 4 | > 300 | Cc1cc(C)cc(CON2C(=O)COc3ccc(C=C4SC(=S)NC4=O)cc32)c1 [Example 89, 4-(3,5-Dimethyl-benzyloxy)-6-(4-oxo-2-thioxo-thiazolidin-5-ylidenemethyl)-4H-benzo[1,4]oxazin-3-one] |
| 4 | > 300 | O=C1NC(=S)SC1=Cc1ccc2c(c1)N(OCc1ccccc1)C(=O)CO2 [Example 90, 4-Benzyloxy-6-(4-oxo-2-thioxo-thiazolidin-5-ylidenemethyl)-4H-benzo[1,4]oxazin-3-one] |
| 8 | 277 to 278 | Cc1cc(C=C2SC(=S)NC2=O)cc2c1OCC(=O)N2Cc1ccc(CN2CCCCC2)cc1 [Example 91, 8-Methyl-6-(4-oxo-2-thioxo-thiazolidin-5-ylidenemethyl)-4-(4-piperidin-1-ylmethyl-benzyl)-4H-benzo[1,4]oxazin-3-one] |
| 6 | 250 to 252 | CCN(CC)Cc1ccc(CN2C(=O)COc3c(C)cc(C=C4SC(=S)NC4=O)cc32)cc1 [Example 92, 4-(4-Diethylaminomethyl-benzyl)-8-methyl-6-(4-oxo-2-thioxo-thiazolidin-5-ylidenemethyl)-4H-benzo[1,4]oxazin-3-one] |
| 16 | 244 to 246 | CCN(CC)Cc1ccc(CN2C(=O)COc3ccc(C=C4SC(=O)NC4=O)cc32)cc1 [Example 93, 5-[4-(4-Diethylaminomethyl-benzyl)-3-oxo-3,4-dihydro-2H-benzo[1,4]oxazin-6-ylmethylene]-thiazolidine-2,4-dione] |
| 29 | 245 to 247 | CC(C)Oc1cc(CN2C(=O)COc3ccc(C=C4SC(=S)NC4=O)cc32)cc(OC(C)C)c1 [Example 94, 4-(3,5-Diisopropoxy-benzyl)-6-(4-oxo-2-thioxo-thiazolidin-5-ylidenemethyl)-4H-benzo[1,4]oxazin-3-one] |
| 225 | 255 to 257 | COc1ccc(C(C)(C)C)cc1CN1C(=O)COc2ccc(C=C3SC(=S)NC3=O)cc21 [Example 95, 4-(5-tert-Butyl-2-methoxy-benzyl)-6-(4-oxo-2-thioxo-thiazolidin-5-ylidenemethyl)-4H-1,4-benzoxazin-3-one] |
| 670 | 277 to 280 | Cc1cc(C)c(C)c(CN2C(=O)COc3ccc(C=C4SC(=S)NC4=O)cc32)c1C [Example 96, 6-(4-Oxo-2-thioxo-thiazolidin-5-ylidenemethyl)-4-(2,3,5,6-tetramethyl-benzyl)-4H-1,4-benzoxazin-3-one] |
| 3 | > 300 | Cc1ccc(CN2C(=O)COc3ccc(C=C4SC(=S)NC4=O)cc32)cc1C [Example 97, 4-(3,4-Dimethyl-benzyl)-6-(4-oxo-2-thioxo-thiazolidin-5-ylidenemethyl)-4H-1,4-benzoxazin-3-one] |
| 5 | > 300 | Cc1cccc(CN2C(=O)COc3ccc(C=C4SC(=S)NC4=O)cc32)c1C [Example 98, 4-(2,3-Dimethyl-benzyl)-6-(4-oxo-2-thioxo-thiazolidin-5-ylidenemethyl)-4H-benzo[1,4]oxazin-3-one] |
| 18 | > 300 | Cc1ccc(C)c(CN2C(=O)COc3ccc(C=C4SC(=S)NC4=O)cc32)c1 [Example 99, 4-(2,5-Dimethyl-benzyl)-6-(4-oxo-2-thioxo-thiazolidin-5-ylidenemethyl)-4H-1,4-benzoxazin-3-one] |
| 2 | 274 to 276 | O=C1NC(=S)SC1=Cc1ccc2c(c1)N(CCc1ccc(Br)cc1)C(=O)CO2 [Example 102, 4-[2-(4-Bromo-phenyl)-ethyl]-6-(4-oxo-2-thioxo-thiazolidin-5-ylidenmethyl)-4H-benzo[1,4]oxazin-3-one] |
| 4 | 267 to 269 | O=C1NC(=S)SC1=Cc1ccc2c(c1)N(CCc1ccc(Cl)c(Cl)c1)C(=O)CO2 [Example 103, 4-[2-(3,4-Dichloro-phenyl)-ethyl]-6-(4-oxo-2-thioxo-thiazolidin-5-ylidenmethyl)-4H-benzo[1,4]oxazin-3-one] |
| 2 | 253 to 255 | O=C1NC(=S)SC1=Cc1ccc2c(c1)N(CCc1ccc(C(F)(F)F)cc1)C(=O)CO2 [Example 104, 6-(Oxo-2-thioxo-thiazolidin-5-ylidenmethyl)-4-[2-(4-trifluoromethyl-phenyl)-ethyl]-4H-benzo[1,4]oxazin-3-one] |
| 5 | 267 to 269 | O=C1NC(=S)SC1=Cc1ccc2c(c1)N(CCc1ccc(Cl)cc1Cl)C(=O)CO2 [Example 105, 4-[2-(2,4-Dichloro-phenyl)-ethyl]-6-(4-oxo-2-thioxo-thiazolidin-5-ylidenmethyl)-4H-benzo[1,4]oxazin-3-one] |

| IC50 [1] [nM] | melting point [°C] | SMILES |
| --- | --- | --- |
| 9 | 241 to 243 | O=C1NC(=S)SC1=Cc1ccc2c(c1)N(CCc1cccc(C(F)(F)F)c1)C(=O)CO2 [Example 106, 6-(Oxo-2-thioxo-thiazolidin-5-ylidenmethyl)-4-[2-(3-trifluoromethyl-phenyl)-ethyl]-4H-benzo[1,4]oxazin-3-one] |
| 72 | 275 to 277 | O=C1NC(=S)SC1=Cc1cc(Cl)c2c(c1)N(CCc1ccc(C(F)(F)F)cc1)C(=O)CO2 [Example 107, 8-Chloro-6-(oxo-2-thioxo-thiazolidin-5-ylidenmethyl)-4-[2-(4-trifluoromethyl-phenyl)-ethyl]-4H-benzo[1,4]oxazin-3-one] |
| 4 | 283 to 286 | O=C1NC(=S)SC1=Cc1ccc2c(c1)N(CCc1ccccc1C(F)(F)F)C(=O)CO2 [Example 108, 6-(Oxo-2-thioxo-thiazolidin-5-ylidenmethyl)-4-[2-(2-trifluoromethyl-phenyl)-ethyl]-4H-benzo[1,4]oxazin-3-one] |
| 5 | 297 to 299 | O=C1NC(=S)SC1=Cc1ccc2c(c1)N(Cc1cccc(-c3ccncc3)c1)C(=O)CO2 [Example 114, 6-(4-Oxo-2-thioxo-thiazolidin-5-ylidenemethyl)-4-(3-pyridin-4-yl-benzyl)-4H-benzo[1,4]-oxazin-3-one] |
| 49 | 220 to 224 | O=C1NC(=S)SC1=Cc1ccc2c(c1)N(CCc1ccc(Oc3ccccc3)cc1)C(=O)CO2 [Example 129, 6-(4-Oxo-2-thioxo-thiazolidin-5-ylidenemethyl)-4-[2-(4-phenoxy-phenyl)-ethyl]-4H-1,4-benzoxazin-3-one] |
| 3 | 267 to 269 | COc1cc(CCN2C(=O)COc3ccc(C=C4SC(=S)NC4=O)cc32)cc(OC)c1 [Example 130, 4-[2-(3,5-Dimethoxy-phenyl)-ethyl]-6-(4-oxo-2-thioxo-thiazolidin-5-ylidenemethyl)-4H-benzo[1,4]oxazin-3-one] |
| 39 | 283 to 285 | CC(C)(C)c1ccc(CCN2C(=O)COc3ccc(C=C4SC(=S)NC4=O)cc32)cc1 [Example 131, 4-[2-(4-tert-Butyl-phenyl)-ethyl]-6-(4-oxo-2-thioxo-thiazolidin-5-ylidenemethyl)-4H-benzo[1,4]-oxazin-3-one] |
| 12 | 266 to 268 | CN(C)c1ccc(CCN2C(=O)COc3ccc(C=C4SC(=S)NC4=O)cc32)cc1 [Example 132, 4-[2-(4-Dimethylaniino-phenyl)-ethyl]-6-(4-oxo-2-thioxo-thiazolidin-5-ylidenemethyl)-4H-benzo[1,4]-oxazin-3-one] |
| 5 | 263 to 266 | O=C1NC(=S)SC1=Cc1ccc2c(c1)N(CCc1ccc(F)c(F)c1)C(=O)CO2 [Example 133, 4-[2-(3,4-Difluoro-phenyl)-ethyl]-6-(4-oxo-2-thioxo-thiazolidin-5-ylidenemethyl)-4H-benzo[1,4]oxazin-3-one] |
| 5 | 278 to 280 | O=C1NC(=S)SC1=Cc1ccc2c(c1)N(CCc1ccc(Cl)cc1)C(=O)CO2 [Example 134, 4-[2-(4-Chloro-phenyl)-ethyl]-6-(4-oxo-2-thioxo-thiazolidin-5-ylidenemethyl)-4H-1,4-benzoxazin-3-one] |
| 5 | 280 to 282 | O=C1NC(=S)SC1=Cc1ccc2c(c1)N(CCc1cccc(Cl)c1)C(=O)CO2 [Example 135, 4-[2-(3-Chloro-phenyl)-ethyl]-6-(4-oxo-2-thioxo-thiazolidin-5-ylidenemethyl)-4H-1,4-benzoxazin-3-one] |
| 12 | – | O=C1NC(=O)C(=Cc2ccc3c(c2)N(Cc2ccoc2)C(=O)CO3)S1 [Example 338, 5-(4-Furan-3-ylmethyl-3-oxo-3,4-dihydro-2H-1,4-benzoxazin-6-ylmethylene)-thiazolidine-2,4-dione] |
| 80 | – | Cc1cc(CN2C(=O)COc3ccc(C=C4SC(=S)NC4=O)cc32)n(C)n1 [Example 339, 4-(2,5-Dimethyl-2H-pyrazol-3-ylmethyl)-6-(4-oxo-2-thioxo-thiazolidin-5-ylidenemethyl)-4H-1,4-benzoxazin-3-one] |
| 13 | – | O=C1NC(=S)SC1=Cc1ccc2c(c1)N(Cc1ccoc1)C(=O)CO2 [Example 340, 4-Furan-3-ylmethyl-6-(4-oxo-2-thioxo-thiazolidin-5-ylidenemethyl)-4H-1,4-benzoxazin-3-one] |
| 3 | – | O=C1NC(=S)S/C1=C\c1cc(F)c2c(c1)N(Cc1ccc(Cl)c(Cl)c1)C(=O)CO2 [Example 341, 4-(3,4-Dichloro-benzyl)-8-fluoro-6-[4-oxo-2-thioxo-thiazolidin-(5Z)-ylidenemethyl]-4H-benzo[1,4]oxazin-3-one] |
